{"source": "patent US20230285350A1", "about": "“FORMULATIONS FOR TETRACAINE AND LIDOCAINE” (LYOTIP, INC., priority 2020, published 2023)", "origin": "cited, not measured here", "data": [{"smiles": "CCN(CC)CC(=O)Nc1c(C)cccc1C", "note": "[lidocaine, Lidocaine]", "values": [{"measurement": "duration of effect", "setting": "used as an injectable", "value": "half an hour to three hours"}]}, {"smiles": "CNC[C@H](O)c1ccc(O)c(O)c1", "note": "[Epinephrine]", "values": [{"measurement": "prolongation of numbing effect and motor block effect of the anesthetic", "setting": "used with tetracaine", "value": "up to an hour"}]}, {"smiles": "CCCCNc1ccc(C(=O)OCCN(C)C)cc1", "note": "[Tetracaine]", "values": [{"measurement": "Onset of effects", "setting": "used in the eyes", "value": "≤ 30", "unit": "s"}, {"measurement": "duration of effects", "setting": "used in the eyes", "value": "less than 15 minutes"}]}]}
